PubChem BioAssay (NCI)
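Five compound concentrations were applied to cells in 96-well plates for 48 hours; endpoints were derived by simple linear interpolation of the resulting dose-response curve. TGI marks complete inhibition of growth.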

Columns and labels:
Assay in all cases: DTP human tumour cell line panel, 48 h
786-0 renal = tested on: 786-0 renal
A498 renal = tested on: A498 renal
A549 NSCLC = tested on: A549 NSCLC
ACHN renal = tested on: ACHN renal
CAKI-1 renal = tested on: CAKI-1 renal
CCRF-CEM leukemia = tested on: CCRF-CEM leukemia
COLO 205 colon = tested on: COLO 205 colon
DLD-1 colon = tested on: DLD-1 colon
DMS 114 small cell lung = tested on: DMS 114 small cell lung
DMS 273 small cell lung = tested on: DMS 273 small cell lung
EKVX NSCLC = tested on: EKVX NSCLC
HCC-2998 colon = tested on: HCC-2998 colon
HCT-116 colon = tested on: HCT-116 colon
HCT-15 colon = tested on: HCT-15 colon
HL-60(TB) leukemia = tested on: HL-60(TB) leukemia
HOP-18 NSCLC = tested on: HOP-18 NSCLC
HOP-62 NSCLC = tested on: HOP-62 NSCLC
HOP-92 NSCLC = tested on: HOP-92 NSCLC
HT29 colon = tested on: HT29 colon
IGROV1 ovarian = tested on: IGROV1 ovarian
K-562 leukemia = tested on: K-562 leukemia
KM12 colon = tested on: KM12 colon
KM20L2 colon = tested on: KM20L2 colon
LOX IMVI melanoma = tested on: LOX IMVI melanoma
LXFL 529 NSCLC = tested on: LXFL 529 NSCLC
M14 melanoma = tested on: M14 melanoma
MALME-3M melanoma = tested on: MALME-3M melanoma
MOLT-4 leukemia = tested on: MOLT-4 leukemia
NCI-H226 lung = tested on: NCI-H226 lung
NCI-H23 lung = tested on: NCI-H23 lung
NCI-H460 lung = tested on: NCI-H460 lung
NCI-H522 lung = tested on: NCI-H522 lung
OVCAR-3 ovarian = tested on: OVCAR-3 ovarian
OVCAR-4 ovarian = tested on: OVCAR-4 ovarian
OVCAR-5 ovarian = tested on: OVCAR-5 ovarian
OVCAR-8 ovarian = tested on: OVCAR-8 ovarian
RPMI-8226 leukemia = tested on: RPMI-8226 leukemia
RXF 393 renal = tested on: RXF 393 renal
RXF-631 renal = tested on: RXF-631 renal
SF-268 CNS = tested on: SF-268 CNS
SF-295 CNS = tested on: SF-295 CNS
SF-539 CNS = tested on: SF-539 CNS
SK-MEL-2 melanoma = tested on: SK-MEL-2 melanoma
SK-MEL-28 melanoma = tested on: SK-MEL-28 melanoma
SK-MEL-5 melanoma = tested on: SK-MEL-5 melanoma
SK-OV-3 ovarian = tested on: SK-OV-3 ovarian
SN12C renal = tested on: SN12C renal
SNB-19 CNS = tested on: SNB-19 CNS
SNB-75 CNS = tested on: SNB-75 CNS
SR leukemia = tested on: SR leukemia
SW-620 colon = tested on: SW-620 colon
TK-10 renal = tested on: TK-10 renal
U251 CNS = tested on: U251 CNS
UACC-257 melanoma = tested on: UACC-257 melanoma
UACC-62 melanoma = tested on: UACC-62 melanoma
UO-31 renal = tested on: UO-31 renal
XF 498 CNS = tested on: XF 498 CNS
M19-MEL melanoma = tested on: M19-MEL melanoma
SNB-78 CNS = tested on: SNB-78 CNS

Measured: TGI

N#CC12C3C4CC5C6C4C1C6C(O)(C53)N2Cc1ccccc1 (configuration not stated)
not listed: M19-MEL melanoma | SNB-78 CNS
> 100 µM: all other assays above

Cc1c2cc[nH]c(=O)c2cc2c(=O)c3cnccc3[nH]c12
not listed: RXF-631 renal | SF-539 CNS | SR leukemia | XF 498 CNS
> 100 µM: all other assays above
